Experimental data: PMC8379219 (Nature Communications, 2021)
Several values for one entry are separate records, joined by “and”; a condition that tells them apart may be missing. Equal values may be shown once. Entries after “also recorded” stand apart in the source; their conditions may differ. Read-outs that look alike come from different tables or passages of the source.

Tests used:
[1] = molecular target: SERT Y95F (Homo sapiens, UniProt P31645, Y95F)
[2] = molecular target: T1, SERT (Homo sapiens, UniProt P31645); test: [3H]IMI dissociation from SERT by VLZ in absence or presence of 10 µM Fab fragment; type: binding; details: for Fab fragment VLZ allostery w [3H]IMI Dissoc (Suppl. Fig 3A): ctrl = 1
T1 construct: expressed in transfected cells; host or cells: membranes of COS-7 cells, transient transfection
T1 sequence (P31645 whole entry, the tested form may be a part): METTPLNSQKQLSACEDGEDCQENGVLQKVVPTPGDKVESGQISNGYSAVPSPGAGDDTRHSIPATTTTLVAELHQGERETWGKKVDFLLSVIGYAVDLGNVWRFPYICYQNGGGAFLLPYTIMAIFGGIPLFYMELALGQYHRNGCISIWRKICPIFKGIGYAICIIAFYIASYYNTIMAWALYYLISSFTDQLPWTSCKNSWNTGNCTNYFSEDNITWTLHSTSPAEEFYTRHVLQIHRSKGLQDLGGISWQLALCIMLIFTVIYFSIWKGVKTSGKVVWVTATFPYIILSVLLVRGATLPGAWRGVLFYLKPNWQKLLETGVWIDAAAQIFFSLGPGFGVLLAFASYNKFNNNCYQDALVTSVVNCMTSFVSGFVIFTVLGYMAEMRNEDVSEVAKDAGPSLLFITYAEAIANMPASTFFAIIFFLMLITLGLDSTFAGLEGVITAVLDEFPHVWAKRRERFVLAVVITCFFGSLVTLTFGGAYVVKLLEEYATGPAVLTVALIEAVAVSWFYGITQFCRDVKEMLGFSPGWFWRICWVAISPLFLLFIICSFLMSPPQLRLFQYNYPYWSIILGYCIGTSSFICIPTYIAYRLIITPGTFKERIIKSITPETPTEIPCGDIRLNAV

[3] = molecular target: T1, SERT; test: [3H]S-CIT dissociation from SERT by VLZ in absence or presence of 10 µM Fab fragment; type: binding
[4] = molecular target: T2, SERT WT (Homo sapiens, UniProt P31645); test: [3H]5-HT saturation uptake with increasing VLZ concentrations, COS-7 cells;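 for all read-outs here: transfected cells assayed 2 days post-transfection, 3 min uptake period, accumulated radioactivity counted in cell lysates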; type: cell-based; parameters: expressed in transfected cells; host or cells: COS-7; [3H]5-HT uptake (Fig. 2A [3H]5-HT Vmax):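 percent of the 5-HT Vmax measured without VLZ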; details: for [3H]5-HT uptake (Fig. 2A [3H]5-HT Vmax): replicates
T2 sequence (P31645 whole entry): as the sequence (P31645 whole entry, the tested form may be a part) above

[5] = molecular target: T2, SERT WT; details: Log[VLZ] (M) -4; ctrl = 1; replicates
[6] = molecular target: SERT S438T (Homo sapiens, UniProt P31645, S438T)
SERT S438T, sequence (P31645 whole entry S438T): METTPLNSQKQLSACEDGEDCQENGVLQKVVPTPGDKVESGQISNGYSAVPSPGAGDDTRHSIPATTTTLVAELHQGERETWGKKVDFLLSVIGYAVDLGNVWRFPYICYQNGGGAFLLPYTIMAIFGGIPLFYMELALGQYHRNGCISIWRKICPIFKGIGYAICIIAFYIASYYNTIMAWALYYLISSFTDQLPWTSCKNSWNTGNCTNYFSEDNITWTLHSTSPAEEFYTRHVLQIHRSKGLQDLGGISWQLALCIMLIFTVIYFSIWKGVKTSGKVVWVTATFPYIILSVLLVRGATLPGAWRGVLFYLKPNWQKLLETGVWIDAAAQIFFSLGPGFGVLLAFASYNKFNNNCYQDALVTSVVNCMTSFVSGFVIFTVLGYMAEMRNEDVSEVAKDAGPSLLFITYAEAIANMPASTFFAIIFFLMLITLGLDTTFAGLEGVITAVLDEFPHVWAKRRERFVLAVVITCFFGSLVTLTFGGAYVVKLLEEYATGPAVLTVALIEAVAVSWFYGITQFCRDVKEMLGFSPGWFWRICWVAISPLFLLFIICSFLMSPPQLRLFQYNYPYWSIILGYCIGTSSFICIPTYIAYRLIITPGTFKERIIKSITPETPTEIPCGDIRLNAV

SERT Y95F, sequence (P31645 whole entry Y95F, the tested form may be a part): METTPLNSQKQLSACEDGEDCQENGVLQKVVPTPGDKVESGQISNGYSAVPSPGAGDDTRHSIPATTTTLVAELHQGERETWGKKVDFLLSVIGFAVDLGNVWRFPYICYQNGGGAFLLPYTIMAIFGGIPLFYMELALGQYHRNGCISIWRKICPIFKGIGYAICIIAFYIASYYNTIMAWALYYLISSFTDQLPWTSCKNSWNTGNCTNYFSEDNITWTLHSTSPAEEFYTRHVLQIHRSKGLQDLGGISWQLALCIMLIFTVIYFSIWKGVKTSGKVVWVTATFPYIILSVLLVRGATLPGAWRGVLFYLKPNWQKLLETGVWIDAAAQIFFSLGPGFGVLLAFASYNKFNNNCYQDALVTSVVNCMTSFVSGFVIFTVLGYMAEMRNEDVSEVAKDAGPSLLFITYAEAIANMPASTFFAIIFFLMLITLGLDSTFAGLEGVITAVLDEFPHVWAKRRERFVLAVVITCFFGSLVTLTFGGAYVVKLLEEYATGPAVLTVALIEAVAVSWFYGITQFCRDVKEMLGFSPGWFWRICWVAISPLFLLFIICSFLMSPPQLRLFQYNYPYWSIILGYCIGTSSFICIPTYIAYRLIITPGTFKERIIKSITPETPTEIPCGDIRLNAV

[3H]5-HT uptake inhibition S1 Mutants ([1]; Log[VLZ] (M) -7.5): 2.147 and 2.505 and 1.589 and 2.318
[3H]5-HT uptake inhibition S1 Mutants ([1]; Log[VLZ] (M) -8): 11.0058 and 6.5 and 7.569
[3H]5-HT uptake inhibition S1 Mutants ([1]; Log[VLZ] (M) -9.5): 92.5116 and 89.0566
[3H]5-HT uptake inhibition S1 Mutants ([1]; Log[VLZ] (M) -11): 98.0826 and 93.7606
Fab fragment VLZ allostery w [3H]IMI Dissoc (Suppl. Fig 3A) ([2]; SERT WT, Log[VLZ] (M) -6): 0
Fab fragment VLZ allostery w [3H]IMI Dissoc (Suppl. Fig 3A) ([2]; SERT WT, Log[VLZ] (M) -7.34): 0.0851
Fab fragment VLZ allostery w [3H]IMI Dissoc (Suppl. Fig 3A) ([2]; SERT WT, Log[VLZ] (M) -7.817): 0.2902
Fab fragment VLZ allostery w [3H]IMI Dissoc (Suppl. Fig 3A) ([2]; SERT WT, Log[VLZ] (M) -8.294): 0.4378
Fab fragment VLZ allostery w [3H]IMI Dissoc (Suppl. Fig 3A) ([2]; w. Fab fragment, Log[VLZ] (M) -6): 0
Fab fragment VLZ allostery w [3H]IMI Dissoc (Suppl. Fig 3A) ([2]; w. Fab fragment, Log[VLZ] (M) -7.34): 0.077
Fab fragment VLZ allostery w [3H]IMI Dissoc (Suppl. Fig 3A) ([2]; w. Fab fragment, Log[VLZ] (M) -7.817): 0.2744
Fab fragment VLZ allostery w [3H]IMI Dissoc (Suppl. Fig 3A) ([2]; w. Fab fragment, Log[VLZ] (M) -8.294): 0.5049
Fab fragment VLZ allostery w [3H]S-CIT Dissoc (Suppl. Fig 3B) ([3]; SERT WT, Log[VLZ] (M) -4, ctrl 0.9997): 0
Fab fragment VLZ allostery w [3H]S-CIT Dissoc (Suppl. Fig 3B) ([3]; SERT WT, Log[VLZ] (M) -6.046, ctrl 0.9997): 0.25
Fab fragment VLZ allostery w [3H]S-CIT Dissoc (Suppl. Fig 3B) ([3]; SERT WT, Log[VLZ] (M) -6.523, ctrl 0.9997): 0.5086
Fab fragment VLZ allostery w [3H]S-CIT Dissoc (Suppl. Fig 3B) ([3]; SERT WT, Log[VLZ] (M) -7, ctrl 0.9997): 0.7481
Fab fragment VLZ allostery w [3H]S-CIT Dissoc (Suppl. Fig 3B) ([3]; w. Fab fragment, Log[VLZ] (M) -6.046, ctrl 0.9993): 0.2288
Fab fragment VLZ allostery w [3H]S-CIT Dissoc (Suppl. Fig 3B) ([3]; w. Fab fragment, Log[VLZ] (M) -6.523, ctrl 0.9993): 0.3777
Fab fragment VLZ allostery w [3H]S-CIT Dissoc (Suppl. Fig 3B) ([3]; w. Fab fragment, Log[VLZ] (M) -7, ctrl 0.9993): 0.7313
[3H]5-HT uptake (Fig. 2A [3H]5-HT Vmax) ([4]; 1.0 nM VLZ, 5-HT 1000 nM): 49.0825 and 65.883 and 64.0163
[3H]5-HT uptake (Fig. 2A [3H]5-HT Vmax) ([4]; 1.0 nM VLZ, 5-HT 2000 nM): 61.0408 and 86.9627 and 62.7549
[3H]5-HT uptake (Fig. 2A [3H]5-HT Vmax) ([4]; 1.0 nM VLZ, 5-HT 3000 nM): 66.441 and 97.8152 and 78.0502
[3H]5-HT uptake (Fig. 2A [3H]5-HT Vmax) ([4]; 6.0 nM VLZ, 5-HT 1000 nM): 12.5099 and 7.037 and 21.7589
[3H]5-HT uptake (Fig. 2A [3H]5-HT Vmax) ([4]; 6.0 nM VLZ, 5-HT 2000 nM): 13.9352 and 18.4437
[3H]5-HT uptake (Fig. 2A [3H]5-HT Vmax) ([4]; 6.0 nM VLZ, 5-HT 3000 nM): 16.6938 and 13.3777
[3H]5-HT uptake (Fig. 2A [3H]5-HT Vmax) ([4]; 7.5 nM VLZ, 5-HT 2000 nM): 20.8007 and 29.8638 and 2.631 and 9.704
[3H]5-HT uptake (Fig. 2A [3H]5-HT Vmax) ([4]; 7.5 nM VLZ, 5-HT 3000 nM): 31.591 and 10.2272 and 13.2803
[3H]5-HT uptake (Fig. 2A [3H]5-HT Vmax) ([4]; 10 nM VLZ, 5-HT 1000 nM): 11.1656 and 2.348 and 1.555 and 4.995
[3H]5-HT uptake (Fig. 2A [3H]5-HT Vmax) ([4]; 10 nM VLZ, 5-HT 3000 nM): 19.1566 and 3.978 and 3.024
Mode of inhibition of [3H]5-HT transport ([4]; VLZ 0–15 nM): non-competitive
5-HT VMAX (in % of no VLZ) ([4]; VLZ 1 nM): 93 ± 13%
5-HT VMAX (in % of no VLZ) ([4]; VLZ 3.0 nM): 66 ± 10%
5-HT VMAX (in % of no VLZ) ([4]; VLZ 3.8 nM): 72 ± 17%
5-HT VMAX (in % of no VLZ) ([4]; VLZ 6.0 nM): 21 ± 6%
5-HT VMAX (in % of no VLZ) ([4]; VLZ 7.5 nM): 18 ± 8%
5-HT VMAX (in % of no VLZ) ([4]; VLZ 10 nM): 11 ± 5%
5-HT VMAX (in % of no VLZ) ([4]; VLZ 15 nM): 3.4 ± 1.2%
5-HT VMAX (in % of no VLZ) ([4]; VLZ […]): 98 ± 10%
VLZ Allosteric Potency SERT WT, [3H]S-CIT dissociation (Fig. 2C) [5]: 0
SMILES: N#Cc1ccc2[nH]cc(CCCCN3CCN(c4ccc5oc(C(N)=O)cc5c4)CC3)c2c1 [VLZ, Vilazodone]
[3H]5-HT uptake inhibition S1 Mutants ([1]; Log[VLZ] (M) -8.5): 23.4424 and 34.8885 and 39.8853 and 24.3563
[3H]5-HT uptake inhibition S1 Mutants ([1]; Log[VLZ] (M) -9): 48.3194 and 75.9314 and 68.9865 and 51.2725
[3H]5-HT uptake inhibition S1 Mutants ([1]; Log[VLZ] (M) -10): 97.9526 and 106.373 and 93.3855 and 88.0755
[3H]5-HT uptake inhibition S1 Mutants ([1]; Log[VLZ] (M) -10.5): 100.1 and 92.5093 and 97.0473 and 106.269
[3H]5-HT uptake inhibition S1 Mutants ([1]; Log[VLZ] (M) -12): 96.3138 and 97.3606 and 96.312 and 100.229
Effect of Fab fragment on allosteric potency of VLZ ([3H]IMI dissociation) ([2]; 10 µM Fab, n = 1): no apparent effect; also recorded: unaffected
Effect of Fab fragment on allosteric potency of VLZ ([3H]S-CIT dissociation) ([3]; 10 µM Fab, n = 1): no apparent effect; also recorded: unaffected
[3H]5-HT uptake (Fig. 2A [3H]5-HT Vmax) ([4]; 3.0 nM VLZ, 5-HT 1000 nM): 33.7847 and 41.1475 and 28.2118 and 48.6535
[3H]5-HT uptake (Fig. 2A [3H]5-HT Vmax) ([4]; 3.0 nM VLZ, 5-HT 2000 nM): 43.7743 and 51.4964 and 36.278 and 58.2653
[3H]5-HT uptake (Fig. 2A [3H]5-HT Vmax) ([4]; 3.0 nM VLZ, 5-HT 3000 nM): 47.6029 and 61.8621 and 42.6502 and 66.7813
[3H]5-HT uptake (Fig. 2A [3H]5-HT Vmax) ([4]; 3.8 nM VLZ, 5-HT 1000 nM): 22.8758 and 41.0675 and 31.8704 and 40.9164 and 22.5758 and 39.1234
[3H]5-HT uptake (Fig. 2A [3H]5-HT Vmax) ([4]; 3.8 nM VLZ, 5-HT 2000 nM): 38.6315 and 55.6912 and 34.4535 and 55.6242 and 30.4203 and 47.6358
[3H]5-HT uptake (Fig. 2A [3H]5-HT Vmax) ([4]; 3.8 nM VLZ, 5-HT 3000 nM): 63.6765 and 45.9269 and 61.6646 and 33.1434 and 58.1985
[3H]5-HT uptake (Fig. 2A [3H]5-HT Vmax) ([4]; 7.5 nM VLZ, 5-HT 1000 nM): 14.9918 and 20.7791 and 1.755 and 5.881 and 9.304
[3H]5-HT uptake (Fig. 2A [3H]5-HT Vmax) ([4]; 10 nM VLZ, 5-HT 2000 nM): 17.8898 and 3.041 and 8.84 and 7.029 and 9.965
[3H]5-HT uptake (Fig. 2A [3H]5-HT Vmax) ([4]; 15 nM VLZ, 5-HT 1000 nM): 1.871 and 1.697 and 1.083 and 0.6379 and 0.8401 and 1.916
[3H]5-HT uptake (Fig. 2A [3H]5-HT Vmax) ([4]; 15 nM VLZ, 5-HT 2000 nM): 3.689 and 3.04 and 2.083 and 1.212 and 1.597 and 2.763
[3H]5-HT uptake inhibition S1 Mutants ([6]; Log[VLZ] (M) -8): 14.775 and 11.8665 and 12.0164 and 12.3243
[3H]5-HT uptake inhibition S1 Mutants ([6]; Log[VLZ] (M) -8.5): 41.3444 and 41.8738 and 54.9583 and 30.416
[3H]5-HT uptake inhibition S1 Mutants ([6]; Log[VLZ] (M) -9): 69.6167 and 63.3209 and 84.8416 and 54.068
